Test system: ATDC5 cells
Test: Chondrogenesis activity assay in ATDC5 cells (collagen type II induction, immunofluorescence)
Type: cell-based, mouse
Settings: Mus musculus; for EC50: collagen type II induction in ATDC5 cells, concentration reaching 50% of maximum induction; for Emax: maximum percent induction of collagen type II relative to internal reference compound at 10 μM, ATDC5 cells
Method: A) Chondrogenesis Activity Assay in ATDC5 Cells
The chondrogenic potential of the compounds of the invention was determined using clonal mouse chondrogenic ATDC5 cells (T. Atsumi et al., Cell Differ. Dev. 1990, 30, 109-116). ATDC5 cells are derived from mouse embryonic AT805 teratocarcinoma cells and are used frequently to study the multistep chondrogenic differentiation process from precursor cells into chondrocytes (C. Shukunami et al., Exp. Cell Res. 1998, 241, 1-11; H. Aklyami et al., J. Bone Miner. Res. 1996, 11, 22-28; H. Akiyami et al., Biochem. Biophys. Res. Commun. 1997, 235, 142-147; C. Shukunami et al., J. Cell Biol. 1996, 133, 457-468; C. Shukunami et al., J. Bone Miner. Res. 1997, 12, 1174-1188). Undifferentiated ATDC5 cells grow in vitro until confluence, showing a fibroblast-like morphology. In the presence of insulin, cells undergo transient condensation and form numerous nodular structures (cartilage nodules). The cartilagenous nature of these nodules was shown by Alcian Blue staining as evidence of the production of proteoglycan (aggrecan) and collagen type II expression (by expression analysis), both molecular markers of chondrocytes (C. Shukunami et al., J. Cell Biol. 1996, 133, 457-468).
Chondrogenic differentiation of ATDC5 cells into chondrocytes by the compounds of the invention was determined by measuring the induction of type II collagen protein as a marker of chondrocytes, a structural component of the extracellular matrix which constitutes more than 80% of cartilage mass (D. R. Eyre, Clin. Orthop. Relat. Res. 2004, 427 Suppl, S118-S122). ATDC5 cells were obtained from RIKEN and cultured as monolayer in basal culture medium (Dulbecco's Modified Eagle Medium/Nutrient Mixture F-12 (DMEM/F12, Invitrogen, #31331-093) supplemented with 10 μg/ml Transferrin (Roche, #10652 202001), 3×10E−8 M sodium seienite (Sigma, #S-5261) and 5% Fetal Calf Serum (FCS Gold, PAA, #A15-251)), at 37° C., and 5% CO2 in plastic flasks of 75 cm^2 or 300 cm^2 subconfluently for propagation. ATDC5 cells were harvested and resuspended in differentiation culture medium that consisted of basal culture medium complemented with 10 μg/ml insulin (Sigma, #19278), to initiate chondrogenic differentiation. For studying the effect of test compounds, the ATDC5 cells were plated in 96-well plates (3.0×10E4 cells per well in 200 μl of differentiation culture medium). Test compounds dissolved in DMSO were added to yield increasing compound concentrations, typically from 40 nM to 10 μM, and a final DMSO concentration of 0.1%. On each 96-well plate, control wells containing no test compound but the same concentration of DMSO, i.e. untreated cells, were included and used as reference for the determination of the effect of the test compounds on the cells, and wells containing an internal reference compound at a concentration of 10 μM were included and used as positive control and for standardizing the results. Cells in the wells were incubated for 4 days at 37° C., and 5% CO2, followed by quantification of intracellular collagen type II.
Quantification of collagen type II in the ATDC5-cells was done by immunofluorescence staining of collagen type II, and fluorescence intensity was measured using a cellular high content imaging system (ImageXpress, Molecular Device). For immunofluorescence staining of intracellular collagen, medium was removed after compound incubation and cells were fixed with 200 μl/well methanol/water (95%/5%). Cells were permeabilized in 200 μl/well phosphate-buffered saline (PBS) containing 0.2% Triton X100 for 15 min and, after removal of the solution, blocked for 30 min with 200 μl/well PBS/0.2% Triton X100 containing 1% bovine serum albumin (BSA) to avoid unspecific binding. After the blocking step, the solution was removed and collagen type II staining solution was added. […]

Structure (SMILES)	EC50 [nM]	Emax [%]
CCn1c2c(-c3cncc(Cl)c3)cc(Cl)cc2c2ccnc(C)c21 [Example 78, 6-Chloro-8-(5-chloro-pyridin-3-yl)-9-ethyl-1-methyl-9H-pyrido[3,4-b]indole]	> 10000	< 20
CCn1c2c(-c3ccc(Cl)nc3)cc(Cl)cc2c2ccnc(C)c21 [Example 79, 6-Chloro-8-(6-chloro-pyridin-3-yl)-9-ethyl-1-methyl-9H-pyrido[3,4-b]indole]	3900	> 80
FC(F)(F)Cn1c2cnccc2c2cc(Cl)cc(-c3ccc(N4CCCC4)nc3)c21 [Example 81, 6-Chloro-8-(6-pyrrolidin-1-yl-pyridin-3-yl)-9-(2,2,2-trifluoro-ethyl)-9H-pyrido[3,4-b]indole]	4100	> 80
Fc1cncc(-c2cc(Cl)cc3c4ccncc4n(CC(F)(F)F)c23)c1 [Example 82, 6-Chloro-8-(5-fluoro-pyridin-3-yl)-9-(2,2,2-trifluoro-ethyl)-9H-pyrido[3,4-b]indole]	2000	20 to 50
Cc1nc(Cl)ccc1-c1cc(Cl)cc2c3ccncc3n(CC(F)(F)F)c12 [Example 83, 6-Chloro-8-(6-chloro-2-methyl-pyridin-3-yl)-9-(2,2,2-trifluoro-ethyl)-9H-pyrido[3,4-b]indole]	2100	20 to 50
CN(C)c1ccc(-c2cc(Cl)cc3c4ccncc4n(CC(F)(F)F)c23)cn1 [Example 84, (5-[6-Chloro-9-(2,2,2-trifluoro-ethyl)-9H-pyrido[3,4-b]indol-8-yl]-pyridin-2-yl)-dimethyl-amine]	> 10000	20 to 50
COc1ncc(-c2cc(Cl)cc3c4ccncc4n(CC(F)(F)F)c23)cc1F [Example 85, 6-Chloro-8-(5-fluoro-6-methoxy-pyridin-3-yl)-9-(2,2,2-trifluoro-ethyl)-9H-pyrido[3,4-b]indole]	> 10000	20 to 50
FC(F)(F)Cn1c2cnccc2c2cc(Cl)cc(-c3ccc(C(F)(F)F)nc3)c21 [Example 88, 6-Chloro-9-(2,2,2-trifluoro-ethyl)-8-(6-trifluoromethyl-pyridin-3-yl)-9H-pyrido[3,4-b]indole]	1700	< 20
FC(F)(F)Cn1c2cnccc2c2cc(Cl)cc(-c3ccc(N4CCCCC4)nc3)c21 [Example 89, 6-Chloro-8-(3,4,5,6-tetrahydro-2H-[1,2′]bipyridinyl-5′-yl)-9-(2,2,2-trifluoro-ethyl)-9H-pyrido[3,4-b]indole]	> 10000	> 80
CC#CCn1c2cnccc2c2cc(Cl)cc(-c3ccc(Cl)nc3)c21 [Example 90, 9-But-2-ynyl-6-chloro-8-(6-chloro-pyridin-3-yl)-9H-pyrido[3,4-b]indole]	> 10000	< 20
CCn1c2c(-c3cnc4[nH]ccc4c3)cc(Cl)cc2c2ccnc(C)c21 [Example 92, 6-Chloro-9-ethyl-1-methyl-8-(1H-pyrrolo[2,3-b]pyridin-5-yl)-9H-pyrido[3,4-b]indole]	2500	> 80
CCn1c2c(-c3ccc(N4CCOCC4)nc3)cc(Cl)cc2c2ccnc(C)c21 [Example 93, 6-Chloro-9-ethyl-1-methyl-8-(6-morpholin-4-yl-pyridin-3-yl)-9H-pyrido[3,4-b]indole]	2200	> 80
Cc1nccc2c1[nH]c1c(-c3ccc(Cl)nc3Cl)cc(Br)cc12 [Example 98, 6-Bromo-8-(2,6-dichloro-pyridin-3-yl)-1-methyl-9H-pyrido[3,4-b]indole]	2400	> 80
COc1ncc(-c2cc(Cl)cc3c2[nH]c2c(C)nccc23)cc1F [Example 99, 6-Chloro-8-(5-fluoro-6-methoxy-pyridin-3-yl)-1-methyl-9H-pyrido[3,4-b]indole]	> 10000	< 20
Cc1nccc2c1[nH]c1c(-c3ccc(N4CCCCC4)nc3)cc(Cl)cc12 [Example 101, 6-Chloro-1-methyl-8-(3,4,5,6-tetrahydro-2H-[1,2′]bipyridinyl-5′-yl)-9H-pyrido[3,4-b]indole]	8200	20 to 50
Cc1nccc2c1[nH]c1c(-c3ccc(OC(C)C)nc3)cc(Cl)cc12 [Example 102, 6-Chloro-8-(6-isopropoxy-pyridin-3-yl)-1-methyl-9H-pyrido[3,4-b]indole]	2100	20 to 50
COc1ccc(-c2cc(Cl)cc3c2[nH]c2c(C)nccc23)c(Cl)n1 [Example 103, 6-Chloro-8-(2-chloro-6-methoxy-pyridin-3-yl)-1-methyl-9H-pyrido[3,4-b]indole]	1900	> 80
COc1ccc(-c2cc(Cl)cc3c2[nH]c2c(C)nccc23)c(C)n1 [Example 104, 6-Chloro-8-(6-methoxy-2-methyl-pyridin-3-yl)-1-methyl-9H-pyrido[3,4-b]indole]	3500	> 80

The next molecules have a lower EC50 than those just listed; values first:

EC50 [nM]	Structure (SMILES)	Emax [%]
580	Cc1nccc2c1[nH]c1c(-c3ccc(Cl)nc3)cc(Cl)cc12 [Example 77, 6-Chloro-8-(6-chloro-pyridin-3-yl)-1-methyl-9H-pyrido[3,4-b]indole]	> 80
1200	FC(F)(F)Cn1c2cnccc2c2cc(Cl)cc(-c3ccc(NC4CCCCC4)nc3)c21 [Example 80, (5-[6-Chloro-9-(2,2,2-trifluoro-ethyl)-9H-pyrido[3,4-b]indol-8-yl]-pyridin-2-yl)-cyclohexyl-amine]	20 to 50
750	FC(F)(F)Cn1c2cnccc2c2cc(Cl)cc(-c3ccc(N4CCOCC4)nc3)c21 [Example 86, 6-Chloro-8-(6-morpholin-4-yl-pyridin-3-yl)-9-(2,2,2-trifluoro-ethyl)-9H-pyrido[3,4-b]indole]	> 80
1500	CN1CCN(c2ccc(-c3cc(Cl)cc4c5ccncc5n(CC(F)(F)F)c34)cn2)CC1 [Example 87, 6-Chloro-8-[6-(4-methyl-piperazin-1-yl)-pyridin-3-yl]-9-(2,2,2-trifluoro-ethyl)-9H-pyrido[3,4-b]indole]	50 to 80
1500	CCn1c2c(-c3ccc(OC)nc3)cc(Cl)cc2c2ccnc(C)c21 [Example 91, 6-Chloro-9-ethyl-8-(6-methoxy-pyridin-3-yl)-1-methyl-9H-pyrido[3,4-b]indole]	> 80
750	COc1ccc(-c2cc(Cl)cc3c2[nH]c2c(C)nccc23)cn1 [Example 94, 6-Chloro-8-(6-methoxy-pyridin-3-yl)-1-methyl-9H-pyrido[3,4-b]indole]	> 80
680	Cc1ccc(-c2cc(Cl)cc3c2[nH]c2c(C)nccc23)cn1 [Example 95, 6-Chloro-1-methyl-8-(6-methyl-pyridin-3-yl)-9H-pyrido[3,4-b]indole]	50 to 80
850	Cc1nccc2c1[nH]c1c(-c3ccc(N4CCOCC4)nc3)cc(Cl)cc12 [Example 96, 6-Chloro-1-methyl-8-(6-morpholin-4-yl-pyridin-3-yl)-9H-pyrido[3,4-b]indole]	50 to 80
1000	Cc1nccc2c1[nH]c1c(-c3ccc(C#N)nc3)cc(Cl)cc12 [Example 100, 5-(6-Chloro-1-methyl-9H-pyrido[3,4-b]indol-8-yl)-pyridine-2-carbonitrile]	< 20
1000	CCc1nccc2c1[nH]c1c(-c3ccc(Cl)nc3Cl)cc(Cl)cc12 [Example 105, 6-Chloro-8-(2,6-dichloro-pyridin-3-yl)-1-ethyl-9H-pyrido[3,4-b]indole]	50 to 80

Reference: patent US12275733B2, “Substituted pyrido[3,4-b]indoles for the treatment of cartilage disorders” (Sanofi, priority 2016, dated 2025)
